The values below come from patent publication US8674103B2, “Lyotropic liquid crystal systems based on aromatic tetracarboxylic bisbenzoimidazole derivatives and methods for making” (Nitto Denko Corporation, priority 2009, dated 2014).

This data set is described as follows: Measurement of dichroic ratios of coated films by polarized absorbance spectra. It counts as physicochemical. The method, then: Gardner Co. Inc.) at a linear velocity of 25 mm/s. The resulting film thickness was approximately 0.2 μm. The process was conducted at room temperature (˜20° C.) and relative humidity of 65% after the film was dried under the same condition. […] The dichroic ratio […] was equal to about 23 at about 500 nm. […] Gardner Co. Inc.) at a linear velocity of 25 mm/s. The resulting film thickness was approximately 200 nm. The process was conducted at room temperature (˜20° C.) and relative humidity of 65% after the film was dried under the same condition. The film was characterized by absorbance spectra measured on a spectrophotometer in a wavelength range from 380 to 780 nm using a light beam polarized along the direction of the film application (Apar) and the direction perpendicular to that (Aper).

Consider `O=C(NCCOCCOCCCS(=O)(=O)O)c1ccc2c(c1)nc1c3ccc4c5ccc6c7c(ccc(c8ccc(c(=O)n21)c3c84)c57)c(=O)n1c2cc(C(=O)NCCOCCOCCCS(=O)(=O)O)ccc2nc61` [Compound 1], for which the “dichroic ratio Kd=log(Apar)/log(Aper)” value (Sample 1: 12 wt % solution titrated with triethylamine to pH 7, film approx. 0.2 μm, at about 500 nm) was “about 23”. For the setting “Table 1, LLC chromophores”, the λmax stood at 500 nm. In addition, where the note is “Table 1, at λmax”, the Dichroic ratio is reported as 23.

`O=C(NCCOCCS(=O)(=O)O)c1ccc2c(c1)nc1c3ccc4c5ccc6c7c(ccc(c8ccc(c(=O)n21)c3c84)c57)c(=O)n1c2cc(C(=O)NCCOCCS(=O)(=O)O)ccc2nc61` [Compound 2]: the “dichroic ratio (Kd)” value (Sample 2: 8 wt % solution titrated with LiOH to pH 7, film approx. 0.2, at about 500 nm) is reported as “about 11”.

As to `O=C(NCCN(CCCS(=O)(=O)O)CCCS(=O)(=O)O)c1ccc2c(c1)nc1c3ccc4c5ccc6c7c(ccc(c8ccc(c(=O)n21)c3c84)c57)c(=O)n1c2cc(C(=O)NCCN(CCCS(=O)(=O)O)CCCS(=O)(=O)O)ccc2nc61` [Compound 3], the “dichroic ratio (Kd)” value (Sample 3: 15 wt % solution titrated with LiOH to pH 7, film approx. 0.2 μm, at about 500 nm) is given as “about 17”.

Turning to `O=C(NCCS(=O)(=O)[O-])c1ccc2nc3c4ccc5c(=O)n6c7cc(C(=O)NCCS(=O)(=O)[O-])ccc7nc6c6ccc(c(=O)n3c2c1)c4c56.[K+].[K+]` [Compound 7], the “dichroic ratio (Kd)” value (Sample 6: 8 wt % solution titrated with KOH to pH 7, film approx. 0.2, at about 450 nm) is “about 8”.

As to `O=C(NCCCS(=O)(=O)[O-])c1ccc2nc3n(c2c1)Cc1ccc2c4c1c-3ccc4c(=O)n1c3cc(C(=O)NCCCS(=O)(=O)[O-])ccc3nc21.[Li+].[Li+]` [Compound 8], the “dichroic ratio (Kd)” value (Sample 7: 8 wt % solution titrated with LiOH to pH 7, film approx. 0.2 μm, at about 450 nm) is reported as “about 10”.

Turning to `O=C(NCCN1CCCC1)c1ccc2nc3c4ccc5c(=O)n6c7cc(C(=O)NCCN8CCCC8)ccc7nc6c6ccc(c(=O)n3c2c1)c4c56` [Compound 17d], where the note is “Sample 11: 25 wt % solution in water, film approx. 200 nm, at about 470 nm”, the “dichroic ratio (Kd)” value is recorded as “about 4”.
